Reference: patent US20210047622A1, “METHOD FOR OBTAINING AN ANIMAL MODEL FROM CONDITIONALLY REPROGRAMMED CELLS AND USE OF THE ANIMAL MODEL FOR SCREEING ANTI-TUMOR DRUGS” (Shanghai Lide Biotech Co., Ltd., priority 2018, published 2021)
“And” between values parts separate entries of the source, which are not always exact repeats. Equal values may be shown once.

Tests used:
Format in all cases: in vivo, human
[1] = test system: MDX186 Mini-PDX models (conditional reprogramming cells from a pancreatic cancer patient); assay: Anti-tumor efficacy in MDX186 Mini-PDX model; conditions: Mini-PDX devices s.c. in nude mice, CTG cell viability day 7, doses, routes and schedules per Table 13
Description: (§2) Conditional reprogramming cells from MDX133, MDX154, MDX164, MDX165, MDX168, MDX169, MDX174, MDX186, MDX189, MDX203 were collected separately. MDX133 originated from a gastric cancer patient, MDX154 model originated from a gallbladder carcinoma patient, MDX164 model originated from a glioblastoma patient, MDX165 model originated from a glioblastoma patient, MDX168 model originated from a gallbladder carcinoma patient, MDX169 model originated from a lung cancer patient, MDX174 model originated from a lung cancer patient, MDX186 model originated from a pancreatic cancer patient, MDX189 model originated from a esophagus cancer patient, MDX203 model originated from a gallbladder carcinoma patient.
(§3) Wash the tumor tissue sample with buffer solution and remove away non-tumor tissue and necrotic tumor tissue in biosafety cabinet. Cut the tumor into 1˜3 mm3 fragments, suspend pellet with 1× collagenase solution and incubate in 37° C. for 1-2 hours. Collect single cells through 70 uM strainer, count cell numbers to calculate tumor cell concentration (See 9. Tumor cell concentration obtained from surgery and biopsy/needle biopsy). Cultivate the cells with conditional reprogramming medium, after tumor cells proliferation, and harvest the conditional reprogramming cells.
(§4) Suspend tumor tissues obtained from biopsy/needle biopsy in 1× collagenase solution and incubate in 37° C. for 1-2 hours. Collect single cells through 70 uM strainer, count cell numbers to calculate tumor cell concentration (See 9. Tumor cell concentration obtained from surgery and biopsy/needle biopsy). Cultivate the cells with conditional reprogramming medium, after tumor cells proliferation, and harvest the conditional reprogramming cells.
(§5) The cells suspension was filled into Mini-PDX device and the devices were inoculated subcutaneously into both flanks of Nu/Nu-nude mice, to establish the Mini-PDX model. The inoculation day was defined as day 0. Mice were randomized in groups according to the bodyweights and the treatments were initiated at day 0.
(§6) • 6.4.1 Body weight were measured every day, the treatment periods of these studies were 7 days, at the termination, all mice were euthanized and the Mini-PDX devices were removed for CTG (cell viability) assay. Tumor relative proliferation rate (%) is the indication of the anti-tumor activity. • 6.4.2 When VCd7−Vd0>0, Tumor relative proliferation rate (%)=(VTd7−Vd0)/(VCd7−Vd0)×100%; When VCd7−Vd0<0, Tumor relative proliferation rate (%)=VTd7/VCd7×100% (VTd7: the cell viability on day 7 of treatment group; VCd7: the cell viability on day 7 of control group; Vdo: the cell viability on day 0).

[2] = test system: MDX168 Mini-PDX models (conditional reprogramming cells from a gallbladder carcinoma patient); assay: Anti-tumor efficacy in MDX168 Mini-PDX model; conditions: Mini-PDX devices s.c. in nude mice, CTG cell viability day 7, doses, routes and schedules per Table 10
Description: as §2, §3, §4, §5, §6

[3] = test system: MDX203 Mini-PDX models (conditional reprogramming cells from a gallbladder carcinoma patient); assay: Anti-tumor efficacy in MDX203 Mini-PDX model; conditions: Mini-PDX devices s.c. in nude mice, CTG cell viability day 7, doses, routes and schedules per Table 15
Description: as §2, §3, §4, §5, §6

[4] = test system: MDX154 Mini-PDX models (conditional reprogramming cells from a gallbladder carcinoma patient); assay: Anti-tumor efficacy in MDX154 Mini-PDX model; conditions: Mini-PDX devices s.c. in nude mice, CTG cell viability day 7, doses, routes and schedules per Table 7
Description: (§1) The inoculation day was defined as day 0.

[5] = test system: MDX123 Mini-PDX models (conditional reprogramming cells from a colonrectal cancer patient); assay: Anti-tumor efficacy in MDX123 Mini-PDX model; conditions: Mini-PDX devices s.c. in nude mice, CTG cell viability day 7, i.p., doses and schedules per Table 5
Description: as §1

[6] = test system: MDX133 Mini-PDX models (conditional reprogramming cells from a gastric cancer patient); assay: Anti-tumor efficacy in MDX133 Mini-PDX model; conditions: Mini-PDX devices s.c. in nude mice, CTG cell viability day 7, doses, routes and schedules per Table 6
Description: as §2, §3, §4, §5, §6

[7] = test system: MDX164 Mini-PDX models (conditional reprogramming cells from a glioblastoma patient); assay: Anti-tumor efficacy in MDX164 Mini-PDX model; conditions: Mini-PDX devices s.c. in nude mice, CTG cell viability day 7, 50 mg/kg p.o. qd*5
Description: as §1

[8] = test system: MDX165 Mini-PDX models (conditional reprogramming cells from a glioblastoma patient); assay: Anti-tumor efficacy in MDX165 Mini-PDX model; conditions: Mini-PDX devices s.c. in nude mice, CTG cell viability day 7, 50 mg/kg p.o. qd*5
Description: as §1

[9] = test system: MDX095 Mini-PDX models (conditional reprogramming cells from a peritoneal malignant tnesoshelioma patient); assay: Anti-tumor efficacy in MDX095 Mini-PDX model; conditions: Mini-PDX devices s.c. in nude mice, CTG cell viability day 7, i.p., doses and schedules per Table 3
Description: Conditional reprogramming cells from […]123 were collected separately. […] The inoculation day was defined as day 0.

Molecule	T/C % (Tumor relative proliferation rate) [1] [%]	T/C % (Tumor relative proliferation rate) [2] [%]	T/C % (Tumor relative proliferation rate) [3] [%]	T/C % (Tumor relative proliferation rate) [4] [%]	T/C % (Tumor relative proliferation rate) [5]	T/C % (Tumor relative proliferation rate) [6] [%]	T/C % (Tumor relative proliferation rate) [9] [%]	further results
Nc1ccn([C@@H]2O[C@H](CO)[C@@H](O)C2(F)F)c(=O)n1 [Gemcitabine]	83	53	77	100				
CCc1c2c(nc3ccc(OC(=O)N4CCC(N5CCCCC5)CC4)cc13)-c1cc3c(c(=O)n1C2)COC(=O)[C@]3(O)CC [Irinotecan]	5	12	48	227	68%	72		
Cn1nnc2c(C(N)=O)ncn2c1=O [Temozolomide]								T/C % (Tumor relative proliferation rate) [7]: 102%; T/C % (Tumor relative proliferation rate) [8]: 29%
N.N.[Cl][Pt][Cl] [Cisplatin]							128	
Cc1nc2ccc(CN(C)c3ccc(C(=O)N[C@@H](CCC(=O)O)C(=O)O)s3)cc2c(=O)[nH]1 [Raltitrexed]					92%			
COc1cc([C@@H]2c3cc4c(cc3[C@@H](O[C@@H]3O[C@@H]5CO[C@@H](C)O[C@H]5[C@H](O)[C@H]3O)[C@H]3COC(=O)[C@H]23)OCO4)cc(OC)c1O [Etoposide]							109	
O=C1[O][Pt]2([NH][C@@H]3CCCC[C@H]3[NH]2)[O]C1=O [Oxaliplatin]	47	75	43	174	61%	89		
CC(=O)O[C@H]1C(=O)[C@@]2(C)[C@H]([C@H](OC(=O)c3ccccc3)[C@]3(O)C[C@H](OC(=O)[C@H](O)[C@@H](NC(=O)c4ccccc4)c4ccccc4)C(C)=C1C3(C)C)[C@]1(OC(C)=O)CO[C@@H]1C[C@@H]2O [Paclitaxel]						52	79	
COc1cccc2c1C(=O)c1c(O)c3c(c(O)c1C2=O)C[C@@](O)(C(=O)CO)C[C@@H]3O[C@H]1C[C@H](N)[C@@H](O)[C@H](C)O1 [Epirubicin]							120	
O=c1[nH]cc(F)c(=O)[nH]1 [5-Fu]	90	146	83	111	75%	103	80	
Bevazulimab: Test drug of the MDX123 groups, printed Bevacizumab in Table 5					76% and 101%			
